Laboratory results as given in paper PMC7006686, “A class of carbonic anhydrase IX/XII – selective carboxylate inhibitors” (Journal of Enzyme Inhibition and Medicinal Chemistry, 2020).
Where two headings read alike, the source gives them in different places.

Tests used:
Test in all cases: stopped-flow CO2 hydrase assay
Format in all cases: biochemical
[1] = biological target: T1, hCA I (Homo sapiens, UniProt P00915)
T1 construct: gene CA1; recombinant, obtained in-house; cytosolic isoform
Text: stopped-flow CO2 hydrase assay on hCA I

[2] = biological target: T2, hCA II (Homo sapiens, UniProt P00918)
T2 construct: gene CA2; recombinant, obtained in-house; cytosolic isoform
Text: stopped-flow CO2 hydrase assay on hCA II

[3] = biological target: T3, hCA IX (Homo sapiens, UniProt Q16790)
T3 construct: gene CA9; recombinant, obtained in-house
Text: stopped-flow CO2 hydrase assay on hCA IX

[4] = biological target: T4, hCA XII (Homo sapiens, UniProt O43570)
T4 construct: gene CA12; recombinant, obtained in-house
T4 sequence (O43570 25-354): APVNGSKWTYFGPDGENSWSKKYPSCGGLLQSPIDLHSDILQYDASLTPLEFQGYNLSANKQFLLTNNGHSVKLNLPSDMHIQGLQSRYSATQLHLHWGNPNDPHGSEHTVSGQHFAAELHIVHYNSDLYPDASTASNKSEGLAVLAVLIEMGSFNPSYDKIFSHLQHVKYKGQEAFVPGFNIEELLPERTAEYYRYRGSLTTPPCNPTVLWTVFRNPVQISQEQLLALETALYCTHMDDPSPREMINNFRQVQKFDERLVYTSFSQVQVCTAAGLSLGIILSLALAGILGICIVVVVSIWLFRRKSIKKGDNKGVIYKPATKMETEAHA
Text: stopped-flow CO2 hydrase assay on hCA XII

T1 sequence (P00915 2-261): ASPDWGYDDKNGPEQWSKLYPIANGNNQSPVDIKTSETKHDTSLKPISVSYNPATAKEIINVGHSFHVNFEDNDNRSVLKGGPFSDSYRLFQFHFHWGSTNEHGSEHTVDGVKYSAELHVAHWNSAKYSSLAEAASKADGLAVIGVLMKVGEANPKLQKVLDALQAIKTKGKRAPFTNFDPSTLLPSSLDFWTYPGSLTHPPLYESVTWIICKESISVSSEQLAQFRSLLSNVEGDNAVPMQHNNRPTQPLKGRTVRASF

SMILES	Ki [1] [µM]	Ki [2] [µM]	Ki ([3]; read-out: hCA IX) [µM]	Ki [4] [µM]	Ki ([3]; read-out: hCA I) [µM]
O=C(O)CN1C(=O)SC(=Cc2ccc(Cl)cc2)C1=O [3c, 2-(5-(4-chlorobenzylidene)-2,4-dioxothiazolidin-3-yl)acetic acid]	> 100	> 100	3.1	0.66	–
O=C(O)CN1C(=O)SC(=Cc2ccc(Br)cc2)C1=O [3e, 2-(5-(4-bromobenzylidene)-2,4-dioxothiazolidin-3-yl)acetic acid]	> 100	> 100	33.3	0.91	–
COc1ccc(C=C2SC(=O)N(CC(=O)O)C2=O)cc1 [3f, 2-(5-(4-methoxybenzylidene)-2,4-dioxothiazolidin-3-yl) acetic acid]	> 100	> 100	3.2	0.85	–
Cc1ccc(C=C2SC(=O)N(CC(=O)O)C2=O)cc1 [3b]	> 100	> 100	–	0.93	> 100
O=C(O)CN1C(=O)SC(=Cc2ccccc2)C1=O [3a, 2-(5-benzylidene-2,4-dioxothiazolidin-3-yl)acetic acid]	> 100	> 100	22.2	0.58	–
O=C(O)CN1C(=O)SC(=Cc2ccccc2Cl)C1=O [3d, 2-(5-(2-chlorobenzylidene)-2,4-dioxothiazolidin-3-yl)acetic acid]	> 100	> 100	24.1	0.47	–
COc1cccc(C=C2SC(=O)N(CC(=O)O)C2=O)c1 [3g, 2-(5-(3-methoxybenzylidene)-2,4-dioxothiazolidin-3-yl) acetic acid]	> 100	> 100	–	0.3	> 100
